A short description of the data set: Photochromic properties of lens samples (2 mm, compound in the mass of cross-linked matrix I or II) exposed to UV radiation from a xenon lamp. To be noted: lens sample. The data set is classed as physicochemical. The text has this:
The matrix used in accordance with the present invention may be one of two types:
A homopolymer of the monomer DIACRYL 121 (D121 : tetraethoxylated Bisphenol A dimethylmethacrylate), marketed by Akzo Nobel; or
A copolymer comprised of a 50/50 mixture by weight of D121 (as above) and polyethylene glycol dimethacrylate (Molecular weight = 400) (PEGDMA 400).
10^-5 moles of at least one compound of the invention, together with 0.2% by weight of AMBN (2,2'-azobis(2-methylbutyronitrile)) provided by Akzo, are added to 10 g of formulations able to generate cross-linked matrix I or II. The formulations thus prepared are then poured into a lens mould of 2 mm thickness and then cured by heating at 60°C for 6 hours, followed by heating at 80°C for 2 hours to give a lens sample. The photochromic properties of the lens samples thus obtained were then evaluated as follows : Said lens sample, containing said photochromic compounds in its mass, is exposed to a UV radiation (source: xenon lamp).

Where [1] appears, read: Matrix II (50/50 D121 / PEGDMA 400 copolymer).
The mark [2] stands for this setting: Matrix I (homopolymer of DIACRYL 121).

The structures appear in SMILES notation.

As to `C1=CC(c2ccccc2)(c2ccccc2)Oc2ccc3ccccc3c21` [Control, 3,3-bisphenyl-3H-naphtho[2,1-b]pyran, reference compound], under setting [1], the “OID : optical induced density (D∞-D0)” value came to 0.280, the “T0 : the transmission before exposure to UV” value was found to be 88%, the “TD15: the transmission after 15 minutes' exposure to UV” value (shortened to “TD15: the transmission”) was found to be 44% and the “λmax: the maximum absorption in the visible spectrum after UV irradiation” value (from here on “λmax: the maximum absorption”) came out at 436 nm.

In the case of `Cc1ccc(NC(=O)c2cc3ccccc3c3c2OC(c2ccccc2)(c2ccccc2)C=C3)cc1` [Example 1, 3,3-diphenyl-5-p-tolylcarbamoyl-3H-naphtho[2,1-b]pyran], under setting [2], the “OID : optical induced density (D∞-D0)” value is 0.315, the “T0 : the transmission before exposure to UV” value amounted to 87.9%, the “TD15: the transmission” value amounted to 42.6% and the “λmax: the maximum absorption” value turned out to be 477 nm.

Take `COc1ccc(C2(c3ccc(OC)cc3OC)C=Cc3c(c(C(=O)N4CCOCC4)cc4ccccc34)O2)c(OC)c1` [Example 2, 3,3-bis(2,4-dimethoxyphenyl)-5-morpholinocarbonyl-3H-naphtho[2,1-b]pyran]: under setting [2], the “OID : optical induced density (D∞-D0)” value is 1.303, the “T0 : the transmission before exposure to UV” value is reported as 85.7%, the “TD15: the transmission” value came out at 4.3% and the “λmax: the maximum absorption” value is on record as 514 nm.

As to `CN(C)c1ccc(C2(c3ccc(N(C)C)c4ccccc34)C=Cc3c(c(C(=O)N4CCOCC4)cc4ccccc34)O2)cc1` (stereo not drawn) [Example 4, 3-(4-dimethylaminophenyl)-3-(4-dimethylaminonapthyl)-5-morpholinocarbonyl-3H-naphtho[2,1-b]pyran], under setting [2], the “OID : optical induced density (D∞-D0)” value was determined as 0.325, the “T0 : the transmission before exposure to UV” value is reported as 65.0%, the “TD15: the transmission” value is recorded as 30.8% and the “λmax: the maximum absorption” value amounted to 556 nm.

Consider `COc1ccc(C2(c3ccc(OC)cc3OC)C=Cc3c(c(C(=O)N4CCc5ccccc54)cc4ccccc34)O2)c(OC)c1` [Example 5, 3,3-bis(2,4-dimethoxyphenyl)-5-indolinocarbonyl--3H-naphtho[2,1-b]pyran], for which, under setting [2], the “OID : optical induced density (D∞-D0)” value came to 1.063, the “T0 : the transmission before exposure to UV” value is 85.6%, the “TD15: the transmission” value amounted to 7.4% and the “λmax: the maximum absorption” value amounted to 514 nm. Under setting [1], the “OID : optical induced density (D∞-D0)” value is 1.634, the “T0 : the transmission before exposure to UV” value is 84.0%, the “TD15: the transmission” value was 2.0% and the “λmax: the maximum absorption” value came out at 514 nm.

Consider `COc1ccc(C2(c3ccc(OC)cc3OC)C=Cc3c(c(C(=O)N4CCOCC4)cc4ccccc34)O2)cc1` (stereo not drawn) [Example 6, 3-(2,4-dimethoxyphenyl)-3-(4-methoxyphenyl)-5-morpholinocarbonyl-3H-naphtho[2,1-b]pyran], for which, under setting [2], the “OID : optical induced density (D∞-D0)” value is listed as 1.931, the “T0 : the transmission before exposure to UV” value was 85.4%, the “TD15: the transmission” value is given as 1.0% and the “λmax: the maximum absorption” value was found to be 510 nm. Moreover, under setting [1], the “OID : optical induced density (D∞-D0)” value turned out to be 2.146, the “T0 : the transmission before exposure to UV” value worked out at 84.0% and the “TD15: the transmission” value is on record as 0.6%.

`COc1ccc(C2(c3ccc(OC)c(OC)c3)C=Cc3c(c(C(=O)N4CCOCC4)cc4ccccc34)O2)c(OC)c1` (stereo not drawn) [Example 7, 3-(2,4-dimethoxyphenyl)-3-(3,4-dimethoxyphenyl)-5-morpholinocarbonyl-3H-naphtho[2,1-b]pyran]: under setting [2], the “OID : optical induced density (D∞-D0)” value is reported as 0.746, the “T0 : the transmission before exposure to UV” value is given as 88.0%, the “TD15: the transmission” value came to 15.8% and the “λmax: the maximum absorption” value is 512 nm. In addition, under setting [1], the “OID : optical induced density (D∞-D0)” value is 0.805, the “T0 : the transmission before exposure to UV” value is recorded as 88.1%, the “TD15: the transmission” value is 13.8% and the “λmax: the maximum absorption” value worked out at 512 nm.

Turning to `COc1ccc(C2(c3ccc(N4CCCCC4)cc3)C=Cc3c(c(C(=O)N4CCCCC4)cc4ccccc34)O2)c(OC)c1` (stereo not drawn) [Example 8, 3-(2,4-dimethoxyphenyl)-3-(p-N-piperidinophenyl)-5-piperidinocarbonyl-3H-naphtho[2,1-b]pyran], under setting [2], the “OID : optical induced density (D∞-D0)” value is listed as 0.637, the “T0 : the transmission before exposure to UV” value worked out at 85.4%, the “TD15: the transmission” value was 19.7% and the “λmax: the maximum absorption” value is recorded as 570 nm. Under setting [1], the “OID : optical induced density (D∞-D0)” value was found to be 0.769, the “T0 : the transmission before exposure to UV” value was 85.8%, the “TD15: the transmission” value was 14.6% and the “λmax: the maximum absorption” value is on record as 570 nm.

As for `COc1ccc(C2(c3ccc(OC)cc3OC)C=Cc3c(c(C(=O)N4CCCCC4)cc4ccccc34)O2)c(OC)c1` [Example 9, 3,3-bis(2,4-dimethoxyphenyl)-5-piperidinocarbonyl-3H-naphtho[2,1-b]pyran], under setting [1], the “OID : optical induced density (D∞-D0)” value turned out to be 0.765, the “T0 : the transmission before exposure to UV” value came out at 89.0%, the “TD15: the transmission” value was 15.3% and the “λmax: the maximum absorption” value was determined as 504 nm.

Source of the values: EP1038870A1, “3,3-bis(aryl)-5-((N-(un)substituted)amido)naphthopyrans, their preparation, compositions and (co)polymer matrices containing them” (Corning S.A., priority 1999, dated 2000).
